According to patent publication US5041567A, “Antibacterial monic acid derivatives” (Beecham Group plc, priority 1982, dated 1991):
In brackets after ≈: the same amount, converted by molar mass. Read-outs that look alike come from different tables or passages of the source.

Legend:
[1] = test system: M. bovis NCTC 10131; assay: microbe, parasite or virus in culture; assay type: cell-based; conditions: NCTC10131, 144 h
[2] = test system: Neisseria catarrhalis 1502; assay: MIC against human bacteria in vitro; assay type: cell-based
[3] = test system: Ps. aeruginosa NCTC 10662; assay: MIC against human bacteria in vitro; assay type: cell-based; conditions: Pseudomonas aeruginosa
[4] = test system: M. suipneumoniae Str. 11; assay: MIC against mycoplasma in vitro; assay type: cell-based; conditions: Mesomycoplasma hyopneumoniae
[5] = test system: E. coli E1; assay: MIC against veterinary bacteria in vitro; conditions: Escherichia coli, E1, 18 h
Procedure: (§1) The activity of the compounds of the Examples against various veterinarily important bacteria, was assayed in vitro using two-fold serial dilutions in Diagnostic Sensitivity Test Agar inoculated with 10^4 organisms.

[6] = test system: E. coli NCTC 10418; assay: MIC against veterinary bacteria in vitro; conditions: Escherichia coli, NCTC10418, 18 h
Procedure: as §1

[7] = test system: Strep. uberis SPU1; assay: MIC against veterinary bacteria in vitro; conditions: Streptococcus uberis, SPU1, 18 h
Procedure: as §1

[8] = test system: Strep. faecalis I; assay: MIC against human bacteria in vitro; assay type: cell-based; conditions: Enterococcus faecalis
[9] = test system: S. typhimurium S18; assay: MIC against veterinary bacteria in vitro; conditions: Salmonella enterica, TYPHIMURIUM, 18 h
Procedure: as §1

[10] = test system: M. bovigenitalium ATCC 14173; assay: MIC against mycoplasma in vitro; assay type: cell-based; conditions: 144 h
[11] = test system: Strep. spp. 64/848-C; assay: MIC against human bacteria in vitro; assay type: cell-based; conditions: 18 h
[12] = test system: Haemophilus influenzae Q1; assay: MIC against human bacteria in vitro; assay type: cell-based
[13] = test system: M. suipneumoniae TAM 6N; assay: MIC against mycoplasma in vitro; assay type: cell-based; conditions: Mesomycoplasma hyopneumoniae, TAM6N, 144 h
[14] = test system: P. mirabilis 889; assay: MIC against human bacteria in vitro; assay type: cell-based
[15] = test system: K. aerogenes A; assay: MIC against human bacteria in vitro; assay type: cell-based; conditions: Klebsiella aerogenes
[16] = test system: Strep. dysgalactiae SPD1; assay: MIC against veterinary bacteria in vitro; conditions: Streptococcus dysgalactiae, SPD1, 18 h
Procedure: as §1

[17] = test system: M. suipneumoniae NB12; assay: MIC against mycoplasma in vitro; assay type: cell-based; conditions: Mesomycoplasma hyopneumoniae
[18] = test system: M. gallisepticum S6; assay: MIC against mycoplasma in vitro; assay type: cell-based; conditions: Mycoplasmoides gallisepticum
[19] = test system: M. suipneumoniae MS 16; assay: MIC against mycoplasma in vitro; assay type: cell-based; conditions: Mesomycoplasma hyopneumoniae, MS16, 144 h
[20] = test system: Bord. bronchiseptica B09; assay: MIC against veterinary bacteria in vitro; conditions: Bordetella bronchiseptica, B09, 18 h
Procedure: as §1

[21] = test system: E. coli NCTC 10418; assay: MIC against human bacteria in vitro; assay type: cell-based; conditions: Escherichia coli
[22] = test system: Strep. pyogenes R80/421-A; assay: MIC against human bacteria in vitro; assay type: cell-based; conditions: Streptococcus pyogenes; Strep. pyogenes R80/421-A; 5% chocolated horse blood agar, 18 hours; read-out: MIC
[23] = test system: Staph. aureus 152 (pen. sens); assay: MIC against veterinary bacteria in vitro; conditions: Staphylococcus aureus, 18 h
Procedure: as §1

[24] = 144 h, M. suipneumoniae Str. 11, 6 days, 37° C., read-out: MIC
[25] = M. bovigenitalium ATCC 14173, 6 days, 37° C., read-out: MIC
[26] = M. suipneumoniae TAM 6N, 6 days, 37° C., read-out: MIC
[27] = 144 h, M. suipneumoniae NB12, Friis broth, 0.9% agarose, 6 days, 37° C., read-out: MIC
[28] = 144 h, M. gallisepticum S6, 6 days, 37° C., read-out: MIC
[29] = M. suipneumoniae MS 16, 6 days, 37° C., read-out: MIC
[30] = Neisseria catarrhalis 1502, 5% chocolated horse blood agar, 18 hours, read-out: MIC
[31] = NCTC10662, Ps. aeruginosa NCTC 10662, 5% chocolated horse blood agar, 18 hours, read-out: MIC
[32] = Strep. faecalis I, 5% chocolated horse blood agar, 18 hours, read-out: MIC
[33] = Haemophilus influenzae Q1, 5% chocolated horse blood agar, 18 hours, read-out: MIC
[34] = Proteus mirabilis, P. mirabilis 889, 5% chocolated horse blood agar, 18 hours, read-out: MIC
[35] = K. aerogenes A, 5% chocolated horse blood agar, 18 hours, read-out: MIC
[36] = NCTC10418, E. coli NCTC 10418, agar with 5% chocolated horse blood, 18 hours, 37° C., read-out: MIC

Row | SMILES | MIC [1] | MIC [4, 24] | MIC [5] | MIC [6] | MIC [7] | MIC [9] | MIC [13, 26] | MIC [16] | MIC [17, 27] | MIC [18, 28] | MIC [20] | MIC [22] | MIC [23] | MIC [2, 30] | MIC [3, 31] | MIC [8, 32] | MIC [12, 33] | MIC [14, 34] | MIC [15, 35] | MIC [21, 36] | further results
1 | COC(=O)CCCCCCCc1cnc(/C=C(\C)C[C@@H]2OC[C@H](C[C@@H]3O[C@H]3[C@@H](C)[C@H](C)O)[C@@H](O)[C@H]2O)o1 [Example 7, 5-(7-Methoxycarbonylheptyl)-2-(1-normon-2-yl)oxazole A] | 0.1 µg/mL (≈ 0.191 µM) | 10 µg/mL (≈ 19.1 µM) | > 80 µg/mL | > 80 µg/mL | 1.25 µg/mL (≈ 2.39 µM) | > 80 µg/mL | > 10 µg/mL | 2.5 µg/mL (≈ 4.77 µM) | > 10 µg/mL | > 10 µg/mL | 40 µg/mL (≈ 76.4 µM) | 25 µg/mL (≈ 47.7 µM) | 5 µg/mL (≈ 9.55 µM) |  |  |  |  |  |  |  | MIC ([2]; Neisseria, 1502, 18 h): 5 µg/mL (≈ 9.55 µM); MIC ([3]; NCTC10662, 18 h): > 100 µg/mL; MIC ([8]; 18 h): > 100 µg/mL; MIC [10, 25]: 1 µg/mL (≈ 1.91 µM); MIC [11]: 10 µg/mL (≈ 19.1 µM); MIC ([12]; Haemophilus influenzae, Q1, 18 h): 0.5 µg/mL (≈ 0.955 µM); MIC ([14]; Proteus mirabilis, 889, 18 h): > 100 µg/mL; MIC ([15]; 18 h): > 100 µg/mL; MIC [19, 29]: 10 µg/mL (≈ 19.1 µM); MIC ([21]; NCTC10418, 18 h): > 100 µg/mL
2 | C/C(=C\c1ncc(C)o1)C[C@@H]1OC[C@H](C[C@@H]2O[C@H]2[C@@H](C)[C@H](C)O)[C@@H](O)[C@H]1O [Example 14, 5-Methyl-2-(1-normon-2-yl) oxazole A] | 0.05 µg/mL (≈ 0.131 µM) |  | > 80 µg/mL | > 80 µg/mL | 2.5 µg/mL (≈ 6.55 µM) | > 80 µg/mL |  | 2.5 µg/mL (≈ 6.55 µM) |  | > 10 µg/mL | > 80 µg/mL | 32 µg/mL (≈ 83.9 µM) | 10 µg/mL (≈ 26.2 µM) | 16 µg/mL (≈ 41.9 µM) | > 128 µg/mL | > 128 µg/mL | 2 µg/mL (≈ 5.24 µM) | > 128 µg/mL | > 128 µg/mL | > 128 µg/mL | MIC ([4]; STR.11, 144 h): 2.5 µg/mL (≈ 6.55 µM); MIC [10]: 0.1 µg/mL (≈ 0.262 µM); MIC [13]: 5 µg/mL (≈ 13.1 µM); MIC ([17]; NB12, 144 h): 5 µg/mL (≈ 13.1 µM); MIC [19]: 2.5 µg/mL (≈ 6.55 µM)
3 | C/C(=C\c1ncc(-c2ccc(C=O)cc2)o1)C[C@@H]1OC[C@H](C[C@@H]2O[C@H]2[C@@H](C)[C@H](C)O)[C@@H](O)[C@H]1O [Example 15, 5-p-Formylphenyl-2-(1-normon-2-yl) oxazole A] | 0.05 µg/mL (≈ 0.106 µM) | 0.5 µg/mL (≈ 1.06 µM) | > 80 µg/mL | > 80 µg/mL | 0.625 µg/mL (≈ 1.33 µM) | > 80 µg/mL | 0.5 µg/mL (≈ 1.06 µM) | 1.25 µg/mL (≈ 2.65 µM) | 0.5 µg/mL (≈ 1.06 µM) |  | 20 µg/mL (≈ 42.4 µM) | 8 µg/mL (≈ 17 µM) | 0.625 µg/mL (≈ 1.33 µM) | 4 µg/mL (≈ 8.48 µM) | > 128 µg/mL | > 128 µg/mL | 4 µg/mL (≈ 8.48 µM) | > 128 µg/mL | > 128 µg/mL | > 128 µg/mL | MIC [10]: 0.05 µg/mL (≈ 0.106 µM); MIC ([18]; S6, 144 h): 1 µg/mL (≈ 2.12 µM); MIC [19]: 0.25 µg/mL (≈ 0.53 µM)
4 | COC(=O)c1ccc(-c2cnc(/C=C(\C)C[C@@H]3OC[C@H](C[C@@H]4O[C@H]4[C@@H](C)[C@H](C)O)[C@@H](O)[C@H]3O)o2)cc1 [Example 16, 5-p-Methoxycarbonylphenyl-2-(1-normon-2-yl) oxazole A] | 0.05 µg/mL (≈ 0.0997 µM) | 0.25 µg/mL (≈ 0.498 µM) | > 80 µg/mL | > 80 µg/mL | 0.312 µg/mL (≈ 0.622 µM) | > 80 µg/mL | 0.5 µg/mL (≈ 0.997 µM) | 1.25 µg/mL (≈ 2.49 µM) | 0.5 µg/mL (≈ 0.997 µM) | 2.5 µg/mL (≈ 4.98 µM) | 40 µg/mL (≈ 79.7 µM) | 4 µg/mL (≈ 7.97 µM) | 1.25 µg/mL (≈ 2.49 µM) | 8 µg/mL (≈ 15.9 µM) | > 64 µg/mL | > 64 µg/mL | 2 µg/mL (≈ 3.99 µM) | > 64 µg/mL | > 64 µg/mL | > 64 µg/mL | MIC [10, 25]: 0.1 µg/mL (≈ 0.199 µM); MIC [19, 29]: 0.25 µg/mL (≈ 0.498 µM)
